Measured values as given in patent publication US7919517B2, “Indazole derivatives” (Kyowa Hakko Kirin Co., Ltd., priority 2003, dated 2011).
Structures can show the parent of a compound that is named as a salt.

Columns and labels:
Type in all cases: cell-based
[1] = tested on: human acute myeloid leukemia cell line MV-4-11; test: Cytostatic activity on leukemia cell line MV-4-11 (WST-1); details: 72 hours, MV-4-11 cells; for inhibition at 10 µM: Homo sapiens, MV4-11, 10 μmol/L, read-out: cytostatic rate MV-4-11 (%) (10 μmol/L)
Procedure: (§1) The cytostatic rates of a test compound on human acute myeloid leukemia cell lines MV-4-11 and ML-1, and human chronic myeloid leukemia cell line K562 were determined in the following manner.
(§2) Each cell was cultured using Roswell Park Memorial Institute's Medium (RPMI) 1640 (Gibco, Catalog No. 11875-093) containing 10% fetal bovine serum (Gibco, Catalog No. 10437-028) and 1% penicillin/streptomycin (1:1) (Gibco, Catalog No. 15140-122). Each 80 μL of the MV-4-11 cell having a concentration of 7.5×10^4 cells/mL (or the ML-1 cell or K562 cell having a concentration of 2.5×10^4 cells/mL) was inoculated to wells of a TC MICROWELL 96U plate (Nalge Nunc International, Catalog No. 163320) and was cultured in a 5% carbon dioxide gas incubator at 37° C. for 4 hours. As a blank, only RPMI medium (80 μL) was added to a well. Each 20 μL of a solution of the test compound in dimethyl sulfoxide (DMSO) which was prepared to make the final concentration to 10 μmol/L, was added to the MV-4-11 cell, ML-1 cell and K562 cell, respectively. Each 20 μL of DMSO was added to the control well and the blank well to […]. After adding the test compound, the cells were incubated in a 5% carbon dioxide gas incubator at 37° C. for 72 hours. After adding 20 μL of WST-1 reagent {4-[3-(4-iodophenyl)-2-(4-nitrophenyl)-2H-5-tetrazolio]-1,3-benzene disulfonate sodium salt} (Roche Diagnostics K.K., Catalog No. 1644807) diluted to 50% with RPMI medium, the cells were further incubated at 37° C. for 2 hours. Then, the absorbances at 450 nm (reference wavelength: 690 nm) were determined with a microplate spectrophotometer SPECTRA max 340PC (Molecular Devices Corporation). The relative growth (%) of a well to which the test compound had been added was determined while setting the absorbance of a well to which not the test compound but DMSO alone had been added (control) at 100% and that of a well containing RPMI medium alone at 0%. The cytostatic rate (%) of the test compound was determined by subtracting the calculated relative growth from 100.

[2] = tested on: human acute myeloid leukemia cell line ML-1; test: Cytostatic activity on leukemia cell line ML-1 (WST-1); details: 72 hours, ML-1 cells; for inhibition at 10 µM: Homo sapiens, ML1, 10 μmol/L, read-out: cytostatic rate ML-1 (%) (10 μmol/L)
Procedure: as §1, §2

[3] = tested on: human chronic myeloid leukemia cell line K562; test: Cytostatic activity on leukemia cell line K562 (WST-1); details: 72 hours, K562 cells; for inhibition at 10 µM: Homo sapiens, 10 μmol/L, read-out: cytostatic rate K562 (%) (10 μmol/L)
Procedure: as §1, §2

[4] = tested on: human colon cancer cell line Colo205; test: Cytostatic activity on solid carcinoma cell line Colo205 (WST-1); details: 72 hours, Colo205 cells; for inhibition at 10 µM: Homo sapiens, COLO 205, 10 μmol/L, read-out: cytostatic rate Colo205 (%) (10 μmol/L)
Procedure: as §2
The cytostatic rate of a test compound on the human colon cancer cell line Colo205 was determined in the following manner.
The cell was cultured using Roswell Park Memorial Institute's Medium (RPMI) 1640 (Gibco, Catalog No. 11875-093) containing 10% fetal bovine serum (Gibco, Catalog No. 10437-028) and 1% penicillin/streptomycin (1:1) (Gibco, Catalog No. 15140-122). Each 80 μL of the Colo205 having a concentration of 1.25×10^4 cells/mL was inoculated to wells of a TC MICROWELL 96F plate (Nalge Nunc International, Catalog No. 167008) and was cultured in a 5% carbon dioxide gas incubator at 37° C. for 24 hours. As a blank, only RPMI (80 μL) was added to a well. Each 20 μL of a solution of the test compound in DMSO which was prepared to make the final concentration to 10 μmol/L, was added to the Colo205 cell. Each 20 μL of DMSO was added to the control well and the blank well to […]. After adding the test compound, the cell was incubated in a 5% carbon dioxide gas incubator at 37° C. for 72 hours. The cytostatic rate (%) was then determined in the same way as the leukemia cell lines.

Compound | inhibition at 10 µM [1] | inhibition at 10 µM [2] | inhibition at 10 µM [3] | inhibition at 10 µM [4] | cytostatic rate MV-4-11 (%) (10 μmol/L) [1] | cytostatic rate ML-1 (%) (10 μmol/L) [2] | cytostatic rate K562 (%) (10 μmol/L) [3] | cytostatic rate Colo205 (%) (10 μmol/L) [4]
O=C(c1ccc(/C=C/c2n[nH]c3ccccc23)cc1)N1CCC(N2CCOCC2)CC1 [Compound 106, (E)-1-{4-[2-(1H-indazol-3-yl)vinyl]benzoyl}-4-morpholinopiperidine] | 98% | 58% | 35% | 37% |  |  |  | 
O=C(c1ccc(/C=C/c2n[nH]c3ccccc23)cc1)N1CCC(O)CC1 [Compound 87, (E)-1-{4-[2-(1H-indazol-3-yl)vinyl]benzoyl}-4-hydroxypiperidine] | 99% | 88% | 76% | 86% |  |  |  | 
CCN(CC)C(=O)c1ccc(/C=C/c2n[nH]c3ccccc23)cc1 [Compound 15, (E)-N,N-Diethyl-4-[2-(1H-indazol-3-yl)vinyl]benzamide hydrochloride] | 91% | 94% | 100% | 92% |  |  |  | 
Cc1cc(/C=C/c2n[nH]c3ccccc23)ccc1C(=O)N1CCNCC1 [Compound 95, (E)-1-{4-[2-(1H-indazol-3-yl)vinyl]-2-methylbenzoyl}piperazine dihydrochloride] | 96% | 70% | 93% | 86% |  |  |  | 
O=C(c1ccc(/C=C/c2n[nH]c3ccccc23)cc1)N1CCN(O)CC1 [Compound 147, (E)-4-Hydroxy-1-{4-[2-(1H-indazol-3-yl)vinyl]benzoyl}piperazine] | 99% | 89% | 77% | 83% |  |  |  | 
O=C(c1ccc(/C=C/c2n[nH]c3ccccc23)cc1)N1CCN(C(=O)[C@@H]2CCCN2)CC1 [Compound 140, (S)-(E)-4-[(pyrrolidin-2-yl)carbonyl]-1-{4-[2-(1H-indazol-3-yl)vinyl]benzoyl}piperazine] | 99% | 82% | 95% | 85% |  |  |  | 
CCC(C)N1CCN(C(=O)c2ccc(/C=C/c3n[nH]c4ccccc34)cc2)CC1=O (stereo not drawn) [Compound 116, (E)-4-{4-[2-(1H-indazol-3-yl)vinyl]benzoyl}-1-(sec-butyl)piperazin-2-one hydrochloride] | 98% | 79% | 88% | 91% |  |  |  | 
O=C(c1ccc(/C=C/c2n[nH]c3ccccc23)cc1)N1CCN(C(=O)C2CC2)CC1 [Compound 55, (E)-4-cyclopropanecarbonyl-1-{4-[2-(1H-indazol-3-yl)vinyl]benzoyl}piperazine] | 97% | 83% | 81% | 89% |  |  |  | 
CN1CCCC1C(=O)N1CCN(C(=O)c2ccc(/C=C/c3n[nH]c4ccccc34)cc2)CC1 (stereo not drawn) [Compound 145, (E)-4-[(1-methylpyrrolidin-2-yl)carbonyl]-1-{4-[2-(1H-indazol-3-yl)vinyl]benzoyl}piperazine] | 99% | 85% | 94% | 92% |  |  |  | 
O=C(c1ccc(/C=C/c2n[nH]c3ccccc23)cc1)N1CCN(c2c(N3CCOCC3)c(=O)c2=O)CC1 [Compound 156, (E)-3-morpholino-4-{[4-(2-(1H-indazol-3-yl)vinyl)benzoyl]piperazin-1-yl}-3-cyclobutene-1,2-dione] |  |  |  |  | 99% | 85% | 94% | 92%
CC(C)N1CCN(C(=O)c2ccc(/C=C/c3n[nH]c4ccccc34)cc2)CC1 [Compound 107, (E)-1-{4-[2-(1H-indazol-3-yl)vinyl]benzoyl}-4-isopropylpiperazine hydrochloride] | 98% | 77% | 91% | 84% |  |  |  | 
O=C(c1ccc(/C=C/c2n[nH]c3ccccc23)cc1)N1CCN(C(=O)N2CCOCC2)CC1 [Compound 41, (E)-1-{4-[2-(1H-indazol-3-yl)vinyl]benzoyl}-4-(morpholinocarbonyl)piperazine] | 97% | 83% | 95% | 90% |  |  |  | 
O=C(NCCN1CCOCC1)c1ccc(/C=C/c2n[nH]c3ccccc23)cc1 [Compound 10, (E)-N-(2-morpholinoethyl)-4-[2-(1H-indazol-3-yl)vinyl]benzamide] | 91% | 83% | 99% | 41% |  |  |  | 
CNCCNC(=O)c1ccc(/C=C/c2n[nH]c3ccccc23)cc1 [Compound 112, (E)-N-[2-(methylamino)ethyl]-4-[2-(1H-indazol-3-yl)vinyl]benzamide hydrochloride] | 98% | 83% | 81% | 88% |  |  |  | 
CN(C)CC(=O)N1CCN(C(=O)c2ccc(/C=C/c3n[nH]c4ccccc34)cc2)CC1 [Compound 125, (E)-4-dimethylaminoacetyl-1-{4-[2-(1H-indazol-3-yl)vinyl]benzoyl}piperazine] | 98% | 79% | 91% | 86% |  |  |  | 
O=C(c1ccccc1)N1CCN(C(=O)c2ccc(/C=C/c3n[nH]c4ccccc34)cc2)CC1 [Compound 46, (E)-1-{4-[2-(1H-indazol-3-yl)vinyl]benzoyl}-4-benzoylpiperazine] | 98% | 82% | 93% | 87% |  |  |  | 
C[C@H]1CN(C(=O)c2ccc(/C=C/c3n[nH]c4ccccc34)cc2)CCN1 [Compound 101, (S)-(E)-1-{4-[2-(1H-indazol-3-yl)vinyl]benzoyl}-3-methylpiperazine dihydrochloride] | 99% | 77% | 92% | 87% |  |  |  | 
CN(C)C(=O)NC1CCN(C(=O)c2ccc(/C=C/c3n[nH]c4ccccc34)cc2)CC1 [Compound 132, (E)-4-dimethylcarbamoylamino-1-{4-[2-(1H-indazol-3-yl)vinyl]benzoyl}piperidine] | 100% | 88% | 95% | 91% |  |  |  | 
NC1CCN(C(=O)c2ccc(/C=C/c3n[nH]c4ccccc34)cc2)CC1 [Compound 64, (E)-1-{4-[2-(1H-indazol-3-yl)vinyl]benzoyl}-4-aminopiperidine] | 98% | 89% | 91% | 94% |  |  |  | 
O=C(c1ccncc1)N1CCN(C(=O)c2ccc(/C=C/c3n[nH]c4ccccc34)cc2)CC1 [Compound 44, (E)-1-{4-[2-(1H-indazol-3-yl)vinyl]benzoyl}-4-(isonicotinoyl)piperazine] | 98% | 85% | 92% | 91% |  |  |  | 
COCCN1CCN(C(=O)c2ccc(/C=C/c3n[nH]c4ccccc34)cc2)CC1=O [Compound 134, (E)-4-{4-[2-(1H-indazol-3-yl)vinyl]benzoyl}-1-(2-methoxyethyl)piperazin-2-one hydrochloride] | 100% | 88% | 91% | 91% |  |  |  | 
